From patent US12303551B2, “Cellular immunotherapy compositions and uses thereof” (CERO THERPEUTICS HOLDINGS, INC., priority 2018, dated 2025)

System: HCC827 NSCLC cells
Test: FACS phagocytosis assay of TAMRA-SE labeled HCC827 cells with or without bafilomycin
Type: cell-based
Conditions: 20 nM added to co-culture
Description: FIGS. 73A-73B show ablation of CER-induced phagocytosis by bafilomycin, an inhibitor of phagolysosome V-ATPase. CER104-modified CD4+ T cells and mock transduced CD4+ T cells (control) were co-cultured with HCC827 cells that were labeled with TAMRA-SE fluorescent dye and treated with osimertinib. Phagocytosis was quantified by FACs.
T cells were transduced with lentiviral vector comprising hCER104 nucleic acid as described in Example 6. hCER104 modified T cells were co-cultured with HCC827 adenocarcinoma cells with or without osimertinib. […] FACs plots from in vitro phagocytosis assays in hCER104 modified T cells or mock transduced control T cells are shown in FIG. 73B.

`CO/C1=C\C(C)=C\[C@@H](C)[C@@H](O)[C@@H](C)C/C(C)=C/C=C/[C@H](OC)[C@@H]([C@@H](C)[C@@H](O)[C@H](C)[C@@]2(O)C[C@@H](O)[C@H](C)[C@@H](C(C)C)O2)OC1=O` [bafilomycin, reference compound] was tested, and the “effect on uptake of labeled HCC827 cells by hCER104 modified T cells” value was “blocked uptake”.
